What was measured:
TRKA^F589L kinase = TRKA^F589L kinase (Homo sapiens (Human), UniProt P04629, F589L); test: Inhibitory activity against TRKA(F589L) kinase (Caliper mobility shift); type: biochemical; settings: in vitro kinase assay
Protocol: Kinase Assay Process: 1× Kinase buffer was prepared. […] The compounds were serially diluted into 10 concentrations ([…], 0.15, and 0.05 nM) using a Precision 3-fold dilution method. By using the Echo550 liquid handler, 250 nL of the 100-fold final concentration compound was transferred to an OptiPlate-384F plate. a 2.5× final concentration kinase solution was prepared using 1× Kinase buffer. 10 μL of the 2.5× final concentration kinase solution was added to the compound wells and the positive control wells, and 10 μL of 1× Kinase buffer was added to the negative control wells. The plate was centrifuged at 1000 rpm for 30 seconds, vortexed for mixing, and then incubated at room temperature for 10 minutes. A mixture of 5/3× final concentration of ATP and Kinase Substrate 22 was prepared using 1× Kinase buffer. 15 μL of the mixture of the 5/3× final concentration ATP and the substrate was added to initiate the reaction, the 384-well plate was centrifuged at 1000 rpm for 30 seconds, vortexed for mixing, and incubated at room temperature for the required time. 30 μL of the termination solution was added to stop the kinase reaction, the plate was centrifuged at 1000 rpm for 30 seconds, and vortexed for mixing. The conversion rate was measured using the Caliper EZ Reader.
Data Analysis: the inhibition rate was calculated as follows:
% Inhibition=(Conversion %_max−conversion %_sample)÷(Conversion %_max−conversion %_min)×100
Conversion %_sample is the conversion rate reading for the sample; Conversion %_min is the average value of the negative control wells, representing the conversion rate for wells without enzyme activity: Conversion %_max is the average value of the positive control wells, representing the conversion rate for wells without compound inhibition. A dose-response curve was fitted using the log concentration of the compound as the X-axis and the percentage inhibition as the Y-axis. The log(inhibitor) vs. response-variable slope of the GraphPad Prism 5 software was used to fit the dose-response curve, and the IC50 value for each compound was obtained. The calculation formula is:
Y=Bottom+(Top−Bottom)/(1+10^((Log IC50−X)*HillSlope)).
wherein X represents the concentration of the compound to be tested; Y represents the inhibition rate at the concentration X: Top refers to the maximum response: Bottom refers to the baseline response; HillSlope refers to the slope of the curve (i.e., the gradient).

TRKA^WT kinase = TRKA^WT kinase (Homo sapiens (Human), UniProt P04629); test: Inhibitory activity against TRKA WT kinase (Caliper mobility shift); type: biochemical; settings: in vitro kinase assay
Summary of the method: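 Kinase preincubated 10 min at room temperature with compound (10-point 3-fold series from 1000 nM), then reaction started with ATP and Kinase Substrate 22. Substrate conversion read by Caliper mobility shift; IC50 from variable-slope log(inhibitor)–response fit of % inhibition versus no-enzyme and no-compound controls.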

[1] = test system: Ba/F3-TPM3-NTRK1-G667C cells; test: Growth inhibition of Ba/F3-TPM3-NTRK1-G667C cells (Cell Titer-Glo); type: cell-based; settings: 72 hours, CTG; read-out: inhibitory activity IC50 Ba/F3-TPM3-NTRK1-G667C
Summary of the method: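 Ba/F3 cells were exposed for 72 hours to serially DMSO-diluted compound at a top final concentration of 10 μM. Viability was read by Cell Titer-Glo luminescence after the plate equilibrated 30 min at room temperature and was then shaken 1 hour in the dark at room temperature.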

[2] = test system: Ba/F3-TPM3-NTRK1-G595R cells; test: Growth inhibition of Ba/F3-TPM3-NTRK1-G595R cells (Cell Titer-Glo); type: cell-based; settings: 72 hours, CTG; read-out: inhibitory activity IC50 Ba/F3-TPM3-NTRK1-G595R
Protocol: (§1) Then the solutions were subjected to a gradient dilution with DMSO: a clean, sterile V-bottom 96-well microplate was placed in the biological safety cabinet. First, 4 μL of DMSO was added to well B2 and 10 μL of DMSO was added to wells B3-B11 respectively; Next, 6 μL of the 10 mM solution was added to well B2. The microplate was pipetted up and down 10 times for mixing. […] Mixing was performed by pipetting up and down 10 times. The solution was diluted in order until well B10. only DMSO was added to well B11 (no compound).
(§2) 6× Compound Solution Preparation (6-fold dilution, × represents dilution factor): (Initial final concentration: 10 μM), a clean, sterile V-bottom 96-well microplate was placed in the biological safety cabinet. 99 μL of cell culture medium was added to each well from B2 to G11. By using a 12-channel pipettor, 1 μL of the compound solution prepared in the previous step was added into the corresponding wells. The solutions were pipetted up and down 10 times to mix the solutions. The highest concentration of compound in this step was 60 μM.
(§3) Treatment of Cells: the above-prepared cell culture plate was taken out of the incubator. 20 μL of compound solution from each well was added to the corresponding cell culture wells. The lowest pipetting speed was used and touching the bottom of the plate was avoided. The culture plate was gently shaked to mix the compound solution, then the plate was returned to the incubator for further culture for 72 hours.
(§4) The highest treatment concentration of the compound was 10 μM. After 72 hours of treatment, the Cell Titer-Glo (CTG) assay was performed. First, the cell culture plate was removed from the CO2 incubator and allowed to stand at room temperature for 30 minutes to ensure uniform temperature of the plate. The pre-prepared Cell Titer-Glo reagent (following the manufacturer's instructions) was taken and allowed to stand at room temperature to thaw. 60 μL of Cell Titer-Glo reagent was added to each well containing cells. The cells were incubated on a horizontal shaker in a dark place at 225 rpm for 1 hour at room temperature. Then, a Tecan Spark microplate reader was used to read the plate using chemiluminescence according to the manufacturer's instructions.

[3] = test system: Ba/F3-TPM3-NTRK1-WT cells; test: Growth inhibition of Ba/F3-TPM3-NTRK1-WT cells (Cell Titer-Glo); type: cell-based; settings: 72 hours, CTG; read-out: inhibitory activity IC50 Ba/F3-TPM3-NTRK1-WT
Protocol: as §1, §2, §3, §4

Sequence of TRKA^F589L kinase (P04629 33-796 F589L): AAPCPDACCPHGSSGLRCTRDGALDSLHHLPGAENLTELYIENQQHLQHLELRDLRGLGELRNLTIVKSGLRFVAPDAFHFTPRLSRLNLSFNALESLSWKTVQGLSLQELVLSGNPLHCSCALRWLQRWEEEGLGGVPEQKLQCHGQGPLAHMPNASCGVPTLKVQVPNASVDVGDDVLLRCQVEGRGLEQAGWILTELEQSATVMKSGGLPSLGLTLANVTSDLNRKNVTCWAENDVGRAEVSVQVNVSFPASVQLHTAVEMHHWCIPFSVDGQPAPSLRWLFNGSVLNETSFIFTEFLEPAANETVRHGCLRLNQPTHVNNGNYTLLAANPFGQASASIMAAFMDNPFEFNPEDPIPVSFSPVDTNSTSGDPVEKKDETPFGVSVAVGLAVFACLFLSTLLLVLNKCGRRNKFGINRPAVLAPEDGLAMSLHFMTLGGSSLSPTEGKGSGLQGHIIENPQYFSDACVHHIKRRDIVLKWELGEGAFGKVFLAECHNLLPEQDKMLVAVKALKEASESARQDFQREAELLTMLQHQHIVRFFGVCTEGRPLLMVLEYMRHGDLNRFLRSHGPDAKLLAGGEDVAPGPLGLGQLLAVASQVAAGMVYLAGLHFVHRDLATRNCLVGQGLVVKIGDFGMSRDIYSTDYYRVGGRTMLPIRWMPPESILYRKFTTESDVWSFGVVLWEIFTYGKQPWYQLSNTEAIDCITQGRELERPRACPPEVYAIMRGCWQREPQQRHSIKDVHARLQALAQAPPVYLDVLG
Sequence of TRKA^WT kinase (P04629 33-796): as the sequence (P04629 33-796 F589L) above, with L557F counted along it

Row | Compound | IC50 (TRKA^F589L kinase) [nM] | IC50 (TRKA^WT kinase) [nM] | IC50 [1] [nM] | IC50 [2] [nM] | IC50 [3] [nM]
1 | Fc1ccc2c(c1)[C@H]1CCCN1c1ccc3ncc(n3n1)-c1cc(ncn1)CCO2 [Example I-69, (3^2R,E)-4^5-fluoro-5-oxa-2(3,6)-imidazo[1,2-b]pyridazina-1(4,6)-pyrimidina-3(1,2)-pyrrolidina-4(1,2)-benzenacycloheptaphane] | < 5 | < 3 | < 100 |  | 
2 | Fc1cnc2c(c1)[C@H]1C[C@H](F)CN1c1ccc3ncc(n3n1)-c1nccc(n1)CCO2 [Example I-88, (3^2R,3^4S,E)-3^4,4^5-difluoro-5-oxa-2(3,6)-imidazo[1,2-b]pyridazina-1(2,4)-pyrimidina-4(3,2)-pyridina-3(1,2)-pyrrolidinacycloheptaphane] | < 5 | < 3 | 10.1 | 1.7 | 0.12
3 | C[C@H]1Nc2ccc3ncc(n3n2)-c2cc(cnn2)CCOc2ncc(F)cc21 [Example I-89, (4R,E)-5^5-fluoro-4-methyl-6-oxa-3-aza-2(3,6)-imidazo[1,2-b]pyridazina-1(3,5)-pyridazina-5(3,2)-pyridinacyclooctaphane] | < 5 | < 3 | < 100 |  | 
4 | C[C@H]1Cc2ccnc(n2)-c2cnc3ccc(nn23)N2CCC[C@@H]2c2cc(F)cnc2O1 [Example I-95, (32R,6S,E)-4-fluoro-6-methyl-5-oxa-2(3,6)-imidazo[1,2-b]pyridazina-1(2,4)-pyrimidina-4(3,2)-pyridina-3(1,2)-pyrrolidinacycloheptaphane] | < 5 | < 3 | < 100 |  | 
5 | C[C@@H]1Cc2cc(ncn2)-c2cnc3ccc(nn23)N2CCC[C@@H]2c2cc(F)ccc2O1 [Example I-97, (3^2R,6R,E)-4^5-fluoro-6-methyl-5-oxa-2(3,6)-imidazo[1,2-b]pyridazina-1(4,6)-pyrimidina-3(1,2)-pyrrolidina-4(1,2)-benzenacycloheptaphane] | < 5 | < 3 | < 100 |  | 
6 | C[C@@H]1Cc2cc(ncn2)-c2cnc3ccc(nn23)N2C[C@@H](F)C[C@@H]2c2cc(F)ccc2O1 [Example I-98, (3^2R,3^4S,6R,E)-3^4,4^5-difluoro-6-methyl-5-oxa-2(3,6)-imidazo[1,2-b]pyridazina-1(4,6)-pyrimidina-3(1,2)-pyrrolidina-4(1,2)-benzenacycloheptaphane] | < 5 | < 3 | 16.3 | 1.5 | 0.22
7 | (R)-(E)-4-methyl-6-oxa-3-aza-2(3,6)-imidazo[1,2-b]pyridazina-1(4,6)-pyrimidina-5(1,2)-benzenacyclooctaphane [Example I-32] | < 5 | < 3 | < 100 |  | 
